According to patent US12617762B2, “Carboxy derivatives with antiinflamatory properties” (Sitryx Therapeutics Limited, priority 2019, dated 2026):
pIC50: −log10 of the molar value.

How the values were obtained:
[1] = tested on: IL-1β cytokine output from THP-1s; experiment: THP-1 AlphaLISA IL-1β cytokine inhibition assay; format: cell-based; conditions: Homo sapiens, THP-1, differentiated THP-1 cells, LPS then nigericin
Description: Measuring Inhibitory Effects on IL-1β Cytokine Output from THP-1s
The cytokine inhibition profiles of compounds of formula (I) were determined in a differentiated THP-1 cell assay. All assays were performed in RPMI-1640 growth medium (Gibco), supplemented with 10% fetal bovine serum (FBS; Gibco), 1% penicillin-streptomycin and 1% sodium pyruvate unless specified otherwise. The IL-1β cytokine inhibition assay was run in a background of differentiated THP-1 cells as described below. All reagents described were from Sigma-Aldrich unless specified otherwise. Compounds were prepared as 10 mM DMSO stocks.
THP-1 cells were expanded as a suspension up to 80% confluence in appropriate growth medium. Cells were harvested, suspended, and treated with an appropriate concentration of phorbol 12-myristate 13-acetate (PMA) over a 72 hr period (37° C./5% CO2).
Following 72 hrs of THP-1 cell incubation, cellular medium was removed and replaced with fresh growth media containing 1% of FBS. Working concentrations of compounds were prepared separately in 10% FBS treated growth medium and pre-incubated with the cells for 30 minutes (37° C./5% CO2). Following the 30 minute compound pre-incubation, THP-1s were treated with an appropriate concentration of LPS and the cells were subsequently incubated for a 24 hr period (37° C./5% CO2). An appropriate final concentration of Nigericin was then dispensed into the THP-1 plates and incubated for 1 hour (37° C./5% CO2) before THP-1 supernatants were harvested and collected in separate polypropylene 96-well holding plates.
Reagents from an IL-1β and IL-6 commercial kit (Perkin Elmer) were prepared and run according to the manufacturer's instructions. Subsequently, fluorescence signal detection in a microplate reader was measured (EnVision® Multilabel Reader, Perkin Elmer).
Percentage inhibition was calculated per cytokine by normalising the sample data to the high and low controls used within each plate (+/− LPS respectively).

[2] = Hepatocyte stability assay, mouse; format: in vitro ADME; conditions: mouse, hepatocytes; for hepatocyte CLint at 10 μM: Hepatocyte stability Clint; for half-life at 10 μM: Hepatocyte stability T½
Excerpt: (§1) Defrosted cryo-preserved hepatocytes (viability >70%) were used to determine the metabolic stability of a compound via calculation of intrinsic clearance (CIint; a measure of the removal of a compound from the liver in the absence of blood flow and cell binding). Clearance data are particularly important for in vitro work as they can be used in combination with in vivo data to predict the half-life and oral bioavailability of a drug.
(§2) The metabolic stability in hepatocytes assay involves a time-dependent reaction using both positive and negative controls. The cells were pre-incubated at 37° C. then spiked with test compound (and positive control); samples were taken at pre-determined time intervals and were analysed to monitor the change in concentration of the initial drug compound over 60 minutes. A buffer incubation reaction (with no hepatocytes present) acted as a negative control and two cocktail solutions, containing compounds with known high and low clearance values (verapamil/7-hydroxycoumarin and propranolol/diltiazem), acted as positive controls. • 1. The assay was run with a cell concentration of 0.5×10^6 cells/mL in Leibovitz buffer. • 2. All compounds and controls were run in duplicate. • 3. Compound concentration was 10 μM. • 4. All compounds and controls were incubated with both cells and buffer to show turnover was due to hepatic metabolism. • 5. All wells on the incubation plate had 326.7 μL of either cells or buffer added. • 6. Prior to assay, cell and buffer-only incubation plates were preincubated for 10 mins at 37° C. • 7. The assay was initiated by adding compounds, 3.3 μL of 1 mM in 10% DMSO—90% Buffer; final DMSO concentration was 0.1%. • 8. Samples were taken at regular timepoints (0, 5, 10, 20, 40, 60 min) until 60 mins. • 9. Sample volume was 40 μL and was added to 160 μL of crash solvent (acetonitrile with internal standard) and stored on ice. • 10. At the end of the assay, the crash plates were centrifuged at 3500 rpm for 20 mins at 4° C. • 11. 80 μL of clear supernatant was removed and mixed with 80 μL of deionised water before being analysed by LC-MS/MS.
(§3) Raw LC-MS/MS data was exported to, and analysed in, Microsoft Excel for determination of intrinsic clearance. The percentage remaining of a compound was monitored using the peak area of the initial concentration as 100%. Intrinsic clearance and half-life values were calculated using a graph of the natural log of percentage remaining versus the time of reaction in minutes.

[3] = Hepatocyte stability assay, human; format: in vitro ADME; conditions: human, hepatocytes; for hepatocyte CLint at 10 μM: Hepatocyte stability Clint; for half-life at 10 μM: Hepatocyte stability T½
Excerpt: as §1, §2, §3

SMILES | pIC50 [1] | hepatocyte CLint at 10 μM [2] [µL/min/1e6 cells] | half-life at 10 μM [2] [min] | hepatocyte CLint at 10 μM [3] [µL/min/1e6 cells] | half-life at 10 μM [3] [min]
C=C(Cc1nc(-c2ccc(C(F)(F)CCC)cc2)no1)C(=O)O [Example 98, 2-((3-(4-(1,1-difluorobutyl)phenyl)-1,2,4-oxadiazol-5-yl)methyl)acrylic acid] | 4.43 | 208 | 6 | 70 | 23
C=C(Cc1nc(-c2ccc(OCc3ccccc3)cc2)no1)C(=O)O [Example 100, 2-((3-(4-(benzyloxy)phenyl)-1,2,4-oxadiazol-5-yl)methyl)acrylic acid] | 4.59 | > 460 | < 3 | 77 | 19
C=C(Cc1nc(C2(c3ccc(OC4CCC4)cc3)CC2)no1)C(=O)O [Example 111, 2-((3-(1-(4-cyclobutoxyphenyl)cyclopropyl)-1,2,4-oxadiazol-5-yl)methyl)acrylic acid] | 4.50 | 382 | 3 | 23 | 71
C=C(Cc1cnc(CCCCCCCC)cn1)C(=O)O [Example 113] | 4.70 | > 460 | < 3 | 290 | 5
C=C(Cc1nc(C2(c3ccc(C4CCCC4)cc3)CC2)no1)C(=O)O [Example 115] | 5.10 | 87 | 15 | 28 | 55
C=C(Cc1ccc(CCCCCCCC)nn1)C(=O)O [Example 116] | 4.55 | 290 | 5 | 60 | 25
C=C(Cc1nc(C2(c3ccc(I)cc3)CC2)no1)C(=O)O [Example 117, 2-((3-(1-(4-iodophenyl)cyclopropyl)-1,2,4-oxadiazol-5-yl)methyl)acrylic acid] | 5.47 | 183 | 7 | 36 | 43
C=C(Cc1nc(C(F)(F)c2ccc(I)cc2)no1)C(=O)O [Example 120, 2-((3-(difluoro(4-iodophenyl)methyl)-1,2,4-oxadiazol-5-yl)methyl)acrylic acid] | 5.44 | 66 | 20 | 10 | 154
C=C(Cc1nc(C(F)(F)c2ccc(S(F)(F)(F)(F)F)cc2)no1)C(=O)O [Example 124, 2-((3-(difluoro(4-(pentafluoro-λ^6-sulfaneyl)phenyl)methyl)-1,2,4-oxadiazol-5-yl)methyl)acrylic acid] | 4.78 | 55 | 27 | 14 | 105
C=C(Cc1nc(Cc2ccc(CCCC)cc2)co1)C(=O)O [Example 127, 2-((4-(4-butylbenzyl)oxazol-2-yl)methyl)acrylic acid] | 4.84 | 478 | 3 | 245 | 6
C=C(Cc1nc(Cc2ccc(C3CCC3)cc2)no1)C(=O)O [Example 128, 2-((3-(4-cyclobutylbenzyl)-1,2,4-oxadiazol-5-yl)methyl)acrylic acid] | 4.58 | 256 | 6 | 49 | 30
C=C(Cc1nc(-c2ccc(OCCCC)c(F)c2)no1)C(=O)O [Example 129, 2-((3-(4-butoxy-3-fluorophenyl)-1,2,4-oxadiazol-5-yl)methyl)acrylic acid] | 4.69 | > 460 | < 3 | 67 | 22
